Our source for the IC50 and EC50 values is patent US10669272B2, “Substituted naphthyridinone compounds useful as T cell activators” (BRISTOL-MYERS SQUIBB COMPANY, priority 2018, dated 2020).

In one assay the target is T1, human DGKα (Homo sapiens, UniProt P23743).
T1 construct: TVMV protease cleavage site (C); Hexa-His (C); made in house; host or cells: Sf9 insect cells (baculovirus, Bac-to-Bac)
Description: DGKα LIPGLO assay (extruded liposome substrate), in vitro DGK inhibition. It counts as biochemical. Particulars: read-out: DGKa LIPGLO IC50.

The target in the next assay is T2, human DGKζ (Homo sapiens, UniProt Q13574).
T2 construct: TVMV protease cleavage site (C); Hexa-His (C); made in house; host or cells: Sf9 insect cells (baculovirus, Bac-to-Bac)
Description: DGKζ LIPGLO assay (extruded liposome substrate), in vitro DGK inhibition. The assay is classed as biochemical. Particulars: read-out: DGKz LIPGLO IC50.

For a further assay, the system named is naïve human CD8 T cells. Description: Human CD8 T cells IFN-γ assay.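 Note: Naïve human CD8 T cells stimulated with plate-bound anti-CD3 and soluble anti-CD28, IFN-γ in supernatant quantified by AlphaLISA and converted to pg/mL.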 The assay is classed as cell-based. Particulars: normalized to 3 μM reference compound with anti-CD3 plus anti-CD28 as 100% activation, read-out: HuCD8 INFG Normalized EC50.
A further assay deals with Human venous whole blood. Description: Human whole blood IFN-γ assay.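 Note: blood from healthy donors exposed to compound for 1 h before stimulation with anti-CD3 and anti-CD28 at 1 µg/mL each, IFN-γ quantified in supernatant by AlphaLISA.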 The assay is classed as cell-based. The following applies: human whole blood, read-out: INFg Whole Blood Normalized Agonist EC50.
Setting [1] is: normalized to 3 μM reference compound with anti-CD3 plus anti-CD28 as 100% activation.
Setting [2] is: Homo sapiens, 24 h, anti-CD3 plus anti-CD28, 24 hours, 3 μM reference compound = 100% activation.
The mark [3] stands for this setting: Homo sapiens, 24 h, normalized to 3 μM reference compound with anti-CD3 plus anti-CD28 as 100% activation.

Structures are written as SMILES. Read-outs that look alike come from different tables or passages of the source.

T1 sequence (P23743 with tags, fused parts or gaps): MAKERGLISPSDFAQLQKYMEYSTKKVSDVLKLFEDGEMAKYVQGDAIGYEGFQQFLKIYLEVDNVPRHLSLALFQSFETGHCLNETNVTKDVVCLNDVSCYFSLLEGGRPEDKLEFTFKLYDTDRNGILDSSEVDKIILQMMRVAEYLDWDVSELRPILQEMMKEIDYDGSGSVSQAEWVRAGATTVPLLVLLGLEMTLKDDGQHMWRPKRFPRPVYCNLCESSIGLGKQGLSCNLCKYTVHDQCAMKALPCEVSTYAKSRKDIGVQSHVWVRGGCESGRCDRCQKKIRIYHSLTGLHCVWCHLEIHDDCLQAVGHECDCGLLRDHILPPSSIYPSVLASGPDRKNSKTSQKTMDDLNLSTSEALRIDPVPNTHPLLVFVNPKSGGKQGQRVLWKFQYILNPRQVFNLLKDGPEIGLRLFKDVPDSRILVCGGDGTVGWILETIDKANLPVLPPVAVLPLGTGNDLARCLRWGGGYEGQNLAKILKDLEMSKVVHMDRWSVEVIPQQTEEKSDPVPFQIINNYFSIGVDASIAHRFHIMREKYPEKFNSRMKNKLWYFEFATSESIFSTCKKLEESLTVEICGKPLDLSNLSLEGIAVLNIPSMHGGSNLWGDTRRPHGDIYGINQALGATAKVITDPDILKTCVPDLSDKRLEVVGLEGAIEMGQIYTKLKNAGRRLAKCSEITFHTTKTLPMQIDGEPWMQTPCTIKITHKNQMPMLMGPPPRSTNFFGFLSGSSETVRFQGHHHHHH
T2 sequence (Q13574 with tags, fused parts or gaps isoform Q13574-4): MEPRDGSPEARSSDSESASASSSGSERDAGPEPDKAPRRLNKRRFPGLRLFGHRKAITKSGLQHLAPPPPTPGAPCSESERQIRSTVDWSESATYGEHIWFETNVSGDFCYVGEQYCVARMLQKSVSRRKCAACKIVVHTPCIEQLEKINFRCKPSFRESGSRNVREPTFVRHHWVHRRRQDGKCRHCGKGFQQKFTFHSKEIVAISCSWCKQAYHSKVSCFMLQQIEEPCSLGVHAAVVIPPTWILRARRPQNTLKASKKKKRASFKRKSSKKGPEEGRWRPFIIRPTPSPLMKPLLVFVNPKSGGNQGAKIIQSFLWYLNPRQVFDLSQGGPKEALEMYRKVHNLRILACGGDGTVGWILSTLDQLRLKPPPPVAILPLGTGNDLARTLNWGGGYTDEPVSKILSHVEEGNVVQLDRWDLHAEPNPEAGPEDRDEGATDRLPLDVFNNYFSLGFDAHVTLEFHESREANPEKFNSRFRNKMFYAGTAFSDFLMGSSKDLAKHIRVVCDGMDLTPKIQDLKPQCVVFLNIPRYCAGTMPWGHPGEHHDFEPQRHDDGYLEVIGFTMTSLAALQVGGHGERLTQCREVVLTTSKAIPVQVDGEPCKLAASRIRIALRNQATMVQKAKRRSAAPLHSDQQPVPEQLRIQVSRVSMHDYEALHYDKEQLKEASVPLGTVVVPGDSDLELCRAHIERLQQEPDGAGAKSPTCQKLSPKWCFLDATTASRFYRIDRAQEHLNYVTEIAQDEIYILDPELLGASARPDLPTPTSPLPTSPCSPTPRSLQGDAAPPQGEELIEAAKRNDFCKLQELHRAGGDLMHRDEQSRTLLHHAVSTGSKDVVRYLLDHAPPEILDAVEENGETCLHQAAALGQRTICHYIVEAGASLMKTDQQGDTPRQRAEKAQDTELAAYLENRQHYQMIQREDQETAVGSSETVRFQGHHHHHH
Description for Human venous whole blood: Human Whole Blood IFN-γ Assay
Human venous whole blood (22.5 μL per well), obtained from healthy donors, was pre-treated with compounds for one hour at 37° C. in a humidified 95% air/5% CO2 incubator. The blood was stimulated with 2.5 μL anti-human CD3 and anti-CD28 mAb at a final concentration of 1 μg/mL each for 24 hours at 37° C. IFN-γ in the supernatants was measured using AlphLISA kit (Cat # AL217).

A word on the IC50: it is the concentration needed to halve the response being measured. In general, EC50 refers to the concentration at which the effect is half-maximal. For `COC(=O)C1CN(C(c2ccc(F)cc2)c2ccc(F)cc2)CCN1c1cc(=O)n(C)c2ccc(C#N)nc12` (single isomer, unassigned) [Example 137, Methyl 4-(bis(4-fluorophenyl)methyl)-1-(6-cyano-1-methyl-2-oxo-1,2-dihydro-1,5-naphthyridin-4-yl)piperazine-2-carboxylate], the IC50 turned out to be 240000 nM on human DGKα (liposome (LIPGLO) assay) and 33000 nM at human DGKζ (liposome (LIPGLO) assay). Besides, in the assay with naïve human CD8 T cells, the EC50 is 1500 nM.
Consider `COC(=O)C1CN(c2cc(=O)n(C)c3ccc(C#N)nc23)CCN1C(c1ccc(F)cc1)c1ccc(F)cc1OC` (single isomer, unassigned) [Example 68, Methyl 4-(6-cyano-1-methyl-2-oxo-1,2-dihydro-1,5-naphthyridin-4-yl)-1-((4-fluoro-2-methoxyphenyl)(4-fluorophenyl)methyl)piperazine-2-carboxylate], for which the IC50 was 18000 nM at human DGKα (liposome (LIPGLO) assay) and 250 nM on human DGKζ (liposome (LIPGLO) assay). Further, in the assay on naïve human CD8 T cells, the concentration for a half-maximal effect (EC50) came to 11 nM.
Taken in the same sequence, the figures for `COC(=O)C1CN(c2c(F)c(=O)n(C)c3ccc(C#N)nc23)CCN1C(c1ccc(Cl)cc1)c1ccc(Cl)cc1` (single isomer, unassigned) [Example 94, methyl 1-(bis(4-chlorophenyl)methyl)-4-(6-cyano-3-fluoro-1-methyl-2-oxo-1,2-dihydro-1,5-naphthyridin-4-yl)piperazine-2-carboxylate] were 27000 nM, 4400 nM and 400 nM.
Consider `Cn1c(=O)cc(N2CCN(C(c3ccc(F)cc3)c3ccc(F)cc3)C(C(N)=O)C2)c2nc(C#N)ccc21` (single isomer, unassigned) [Example 41, 1-(bis(4-fluorophenyl)methyl)-4-(6-cyano-1-methyl-2-oxo-1,2-dihydro-1,5-naphthyridin-4-yl)piperazine-2-carboxamide], for which the IC50 on human DGKα (liposome (LIPGLO) assay) is 14000 nM; on human DGKζ (liposome (LIPGLO) assay), 46000 nM. Moreover, in the assay with naïve human CD8 T cells, the EC50 worked out at 1500 nM.
The like results for `Cn1c(=O)cc(N2CCN(C(c3ccc(F)cc3)c3ccc(F)cc3)CC2CO)c2nc(C#N)ccc21` (single isomer, unassigned) [Example 148, 8-(4-(bis(4-fluorophenyl)methyl)-2-(hydroxymethyl)piperazin-1-yl)-5-methyl-6-oxo-5,6-dihydro-1,5-naphthyridine-2-carbonitrile] were, in that order, 240000 nM, 75000 nM and 420 nM.
Regarding `COc1ccc2c(n1)c(N1C[C@@H](C)N(C(c3ccccc3)c3ccc(F)cc3)C[C@@H]1C)cc(=O)n2C` (single isomer, unassigned) [Example 238], the IC50 came out at 17000 nM at human DGKα (liposome (LIPGLO) assay) and 79000 nM at human DGKζ (liposome (LIPGLO) assay). Moreover, in the assay with naïve human CD8 T cells (Homo sapiens, T-cell, 20 h), the EC50 was found to be 5000 nM.
Taken in the same sequence, the figures for `Cn1c(=O)cc(N2CCN(C(c3ccc(F)cc3)c3ccc(F)cc3)CC2CO)c2nc(C#N)ccc21` (racemic) [Example 146, 8-(4-(bis(4-fluorophenyl)methyl)-2-(hydroxymethyl)piperazin-1-yl)-5-methyl-6-oxo-5,6-dihydro-1,5-naphthyridine-2-carbonitrile] were 84000 nM, 14000 nM and 660 nM.
In the case of `COC(=O)C1CN(c2cc(=O)n(C)c3ccc(C#N)nc23)CCN1C(c1ccc(F)cc1)c1ccc(F)cc1OC` (single isomer, unassigned) [Example 67, Methyl 4-(6-cyano-1-methyl-2-oxo-1,2-dihydro-1,5-naphthyridin-4-yl)-1-((4-fluoro-2-methoxyphenyl)(4-fluorophenyl)methyl)piperazine-2-carboxylate], the IC50 is 48000 nM on human DGKα (liposome (LIPGLO) assay) and 920 nM at human DGKζ (liposome (LIPGLO) assay). Besides, the EC50 with naïve human CD8 T cells was determined as 30 nM.
With `Cn1c(=O)cc(N2CCN(C(c3ccc(F)cc3)c3ccc(F)cc3)CC2C#N)c2nc(C#N)ccc21` (single isomer, unassigned) [Example 144, 8-(4-(bis(4-fluorophenyl)methyl)-2-cyanopiperazin-1-yl)-5-methyl-6-oxo-5,6-dihydro-1,5-naphthyridine-2-carbonitrile], the 50% inhibitory concentration (IC50) came out at 1400 nM at human DGKα (liposome (LIPGLO) assay) and 2400 nM on human DGKζ (liposome (LIPGLO) assay). Moreover, in the assay on naïve human CD8 T cells (Homo sapiens, T-cell, 20 h), the EC50 came out at 1200 nM.
Turning to `CC(c1cc(OC(F)(F)F)ccc1F)N1C[C@H](C)N(c2cc(=O)n(C)c3ccc(C#N)nc23)C[C@H]1C` (stereo partly drawn) [Example 1203], the figures for the IC50 on human DGKα (liposome (LIPGLO) assay) and at human DGKζ (liposome (LIPGLO) assay) were 3000 nM and 1600 nM, respectively. In addition, the EC50 in the assay on Human venous whole blood (setting [1]) came out at 20000 nM.
Regarding `Cc1cccc(C(c2ccc(F)cc2)N2CCN(c3c(C#N)c(=O)n(C)c4ccc(C#N)nc34)C[C@H]2C)n1` (single isomer, unassigned) [Example 905], the IC50 on human DGKα (DGKα liposome (LIPGLO) assay) came to 4600 nM; at human DGKζ (DGKζ liposome (LIPGLO) assay), 1200 nM. Besides, the EC50 in the assay with Human venous whole blood (setting [2]) stood at 1300 nM.
For the compound `C[C@H]1CN(C(c2ccc(F)cc2)c2ccc(F)cc2)[C@H](CN2CC(O)C2)CN1c1cc(=O)n(C)c2ccc(C#N)nc12` [Example 1168], the IC50 on human DGKα (liposome (LIPGLO) assay) is 83000 nM; on human DGKζ (liposome (LIPGLO) assay), 60000 nM. The EC50 in the assay with Human venous whole blood (setting [3]) is 20000 nM.
As to `C[C@@H]1CN(c2c(C#N)c(=O)n(C)c3ccc(C#N)nc23)CCN1Cc1cccc(F)c1` [Example 1005], the IC50 on human DGKα (DGKα liposome (LIPGLO) assay) came out at 870 nM; at human DGKζ (DGKζ liposome (LIPGLO) assay) it was 7700 nM. Besides, in the assay on Human venous whole blood (setting [2]), the EC50 worked out at 20000 nM.
For `CC[C@H]1CN(C(C)c2ccc(C(F)(F)F)cc2F)[C@H](CC)CN1c1cc(=O)n(C)c2ccc(C#N)nc12` (single isomer, unassigned) [Example 1364], the values for the IC50 on human DGKα (liposome (LIPGLO) assay) and at human DGKζ (liposome (LIPGLO) assay) were 150 nM and 29 nM, respectively. In addition, the half-maximal effective concentration (EC50) in the assay on Human venous whole blood (setting [1]) is 58 nM.
Regarding `C[C@@H]1CN(c2cc(=O)n(C)c3ccc(C#N)nc23)[C@@H](C)CN1C(c1ccc(F)cc1)C1CCOCC1` (single isomer, unassigned) [Example 387], the IC50 at human DGKα (liposome (LIPGLO) assay) amounted to 1500 nM; on human DGKζ (liposome (LIPGLO) assay) it was 3100 nM. Further, the EC50 with Human venous whole blood (setting [3]) is 3600 nM.
The like results for `CC[C@H]1CN(Cc2ccc3c(c2)OC(F)(F)O3)[C@H](COC)CN1c1cc(=O)n(C)c2ccc(C#N)nc12` [Example 1407] were, in that order, 7100 nM, 350 nM and 4400 nM.
The like results for `CCC(c1ccc(OC(F)(F)F)cc1F)N1C[C@H](C)N(c2cc(=O)n(C)c3ccc(C#N)nc23)C[C@H]1C` (stereo partly drawn) [Example 438, 8-((2S,5R)-4-(1-(2-fluoro-4-(trifluoromethoxy)phenyl)propyl)-2,5-dimethylpiperazin-1-yl)-5-methyl-6-oxo-5,6-dihydro-1,5-naphthyridine-2-carbonitrile] were, in that order, 320 nM, 810 nM and 740 nM.
Consider `CCc1ccccc1C(c1ccc(F)cc1)N1C[C@H](C)N(c2c(C#N)c(=O)n(C)c3ccc(C#N)nc23)C[C@H]1C` (single isomer, unassigned) [Example 810], for which the figures for the IC50 at human DGKα (DGKα liposome (LIPGLO) assay) and on human DGKζ (DGKζ liposome (LIPGLO) assay) were 240000 nM and 23000 nM, respectively. For the same compound, the EC50 with Human venous whole blood (anti-CD3 plus anti-CD28, 24 hours, 3 μM reference compound = 100% activation) is 20000 nM.
`Cc1cc(C(C)N2C[C@H](C)N(c3cc(=O)n(C)c4ccc(C#N)nc34)C[C@H]2C)no1` (single isomer, unassigned) [Example 649]: the IC50 came out at 3600 nM on human DGKα (liposome (LIPGLO) assay) and 3400 nM at human DGKζ (liposome (LIPGLO) assay). The EC50 in the assay on Human venous whole blood (setting [3]) turned out to be 20000 nM.
Taken in the same sequence, the figures for `CC[C@@H]1CN(c2cc(=O)n(C)c3ccc(C#N)nc23)[C@@H](C)CN1C(c1ccc(OC(F)(F)F)cc1)c1ccccn1` (single isomer, unassigned) [Example 340] were 320 nM, 220 nM and 80 nM.
As for `CC[C@H]1CN(C(C)c2ccc(OC(F)(F)F)cc2)[C@H](C)CN1c1cc(=O)n(C)c2ccc(C#N)nc12` (single isomer, unassigned) [Example 1141], the IC50 at human DGKα (liposome (LIPGLO) assay) was 8.3 nM; on human DGKζ (liposome (LIPGLO) assay), 370 nM. Further, the EC50 in the assay on Human venous whole blood (setting [1]) was found to be 470 nM.
The like results for `COC(=O)C1CN(c2cc(=O)n(C)c3ccc(C#N)nc23)CCN1C(c1ccc(Cl)cc1)c1ccc(Cl)cc1` (single isomer, unassigned) [Example 96, methyl 1-(bis(4-chlorophenyl)methyl)-4-(6-cyano-1-methyl-2-oxo-1,2-dihydro-1,5-naphthyridin-4-yl)piperazine-2-carboxylate] were, in that order, 240000 nM, 14000 nM and 13000 nM.
The like results for `C[C@@H]1CN(c2cc(=O)n(C)c3ccc(C#N)nc23)[C@@H](C)CN1C(c1ccc(F)cc1)c1cccc(C(F)F)n1` (single isomer, unassigned) [Example 697] were, in that order, 740 nM, 59 nM and 200 nM.
Taken in the same sequence, the figures for `CC[C@@H]1CN(c2cc(=O)n(C)c3ccc(C#N)nc23)[C@@H](C)CN1C(c1ccc(Cl)cc1)c1ccccn1` (single isomer, unassigned) [Example 423] were 27 nM, 170 nM and 740 nM.
Regarding `C[C@@H]1CN(c2cc(=O)n(C)c3ccc(C#N)nc23)[C@@H](C)CN1C(c1ccc(F)cc1)c1cncnc1` (single isomer, unassigned) [Example 393], the half-maximal inhibitory concentration (IC50) is 1600 nM on human DGKα (liposome (LIPGLO) assay) and 7100 nM at human DGKζ (liposome (LIPGLO) assay). Moreover, the EC50 in the assay with Human venous whole blood (setting [1]) came out at 3500 nM.
Turning to `C[C@@H]1CN(c2cc(=O)n(C)c3ccc(C#N)nc23)[C@@H](C)CN1C(c1ccc(F)cc1)c1ncccn1` (stereo partly drawn) [Example 677], the results for the half-inhibitory concentration (IC50) at human DGKα (liposome (LIPGLO) assay) and at human DGKζ (liposome (LIPGLO) assay) were 150 nM and 2700 nM, respectively. For the same compound, the EC50 in the assay with Human venous whole blood (setting [1]) turned out to be 1800 nM.
